pKd: −log10 of the molar value.
Target: T1, rhMyD88(TIR) (Homo sapiens, UniProt Q99836)
T1 construct: gene MYD88; Results text calls it only rhMyD88
Assay: isothermal titration calorimetry (Nano-ITC)
Format: binding

T1 sequence (Q99836 159-296 limits assumed): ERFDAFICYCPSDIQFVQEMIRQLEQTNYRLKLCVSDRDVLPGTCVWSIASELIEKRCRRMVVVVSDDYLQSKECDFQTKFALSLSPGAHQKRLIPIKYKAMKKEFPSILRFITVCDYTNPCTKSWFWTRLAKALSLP

- pKd: 3.90
SMILES: COc1cc2c(c(OC)c1OC)-c1c(cc3c(c1OC)OCO3)CC(C)C(C)C2 (stereo not shown) [Schisandrin B]

From paper PMC9631063, “Schisandrin B Attenuates Diabetic Cardiomyopathy by Targeting MyD88 and Inhibiting MyD88‐Dependent Inflammation” (Advanced Science, 2022)
